Test results published in US20240270762A1, “PENICILLIN-BINDING PROTEIN INHIBITORS” (priority 2021, published 2024).
Values after ≈ are worked out from the molar mass of the structure shown.

Tests used:
[1] = molecular target: T1, PBP3 from Pseudomonas aeruginosa (PAO1) (Pseudomonas aeruginosa, UniProt G3XD46); test: Bocillin-FL fluorescence polarization competition binding, P. aeruginosa PBP3; settings: Binding affinity to P. aeruginosa PBP3; fluorescence polarization competition binding assay using Bocillin-FL; read-out: P. aeruginosa PBP3 Potency
T1 construct: made in house
T1 sequence (G3XD46 whole entry): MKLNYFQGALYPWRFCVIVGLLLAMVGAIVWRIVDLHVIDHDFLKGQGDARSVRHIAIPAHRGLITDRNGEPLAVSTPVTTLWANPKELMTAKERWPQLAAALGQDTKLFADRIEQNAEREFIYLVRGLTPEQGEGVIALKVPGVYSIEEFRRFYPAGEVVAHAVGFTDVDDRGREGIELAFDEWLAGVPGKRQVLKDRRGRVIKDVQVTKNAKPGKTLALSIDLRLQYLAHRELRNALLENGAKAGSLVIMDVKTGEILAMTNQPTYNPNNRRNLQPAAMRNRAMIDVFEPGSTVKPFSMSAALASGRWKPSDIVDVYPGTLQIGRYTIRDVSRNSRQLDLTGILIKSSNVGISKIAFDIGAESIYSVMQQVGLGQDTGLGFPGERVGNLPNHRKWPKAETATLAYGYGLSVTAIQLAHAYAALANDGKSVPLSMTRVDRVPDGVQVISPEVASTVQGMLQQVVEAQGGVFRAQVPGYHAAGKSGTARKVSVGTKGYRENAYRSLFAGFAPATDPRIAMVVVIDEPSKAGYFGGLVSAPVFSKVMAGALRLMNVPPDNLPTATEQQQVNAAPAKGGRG
In short: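 Purified PBPs pre-incubated with inhibitor (E. coli PBP3 1.5 μM, 30 min; P. aeruginosa PBP3 0.75 μM, A. baumannii PBP1a 1 μM and PBP3 0.2 μM, 15 min), then Bocillin-FL 0.1 μM (0.05 μM for PBP1a) added; FP read up to 60 min. EC50 = concentration halving bound Bocillin-FL.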

A. baumannii CDC-0045 = test: microbe, parasite or virus in culture; type: cell-based; settings: Acinetobacter baumannii, CDC0045, read-out: MIC, A. baumannii CDC-0045
P. aeruginosa CDC-0095 = test: microbe, parasite or virus in culture; type: cell-based; settings: Pseudomonas aeruginosa, CDC0095, read-out: Minimum inhibitory concentration, P. aeruginosa CDC-0095
P. aeruginosa CDC-0110 = test: microbe, parasite or virus in culture; type: cell-based; settings: Pseudomonas aeruginosa, CDC0110, read-out: Minimum inhibitory concentration, P. aeruginosa CDC-0110
[2] = test system: B. humptydooensis ATCC BAA-2767; test: microbe, parasite or virus in culture; type: cell-based; settings: Burkholderia humptydooensis, ATCCBAA2767, read-out: Minimum inhibitory concentration (MIC), B. humptydooensis ATCC BAA-2767
A. baumannii CDC-0033 = test: microbe, parasite or virus in culture; type: cell-based; settings: Acinetobacter baumannii, CDC0033, read-out: MIC, A. baumannii CDC-0033
P. aeruginosa CDC-0090 = test: microbe, parasite or virus in culture; type: cell-based; settings: Pseudomonas aeruginosa, CDC0090, read-out: Minimum inhibitory concentration, P. aeruginosa CDC-0090
P. aeruginosa ATCC 27853 = test: microbe, parasite or virus in culture; type: cell-based; settings: Pseudomonas aeruginosa, ATCC27853, read-out: Minimum inhibitory concentration, P. aeruginosa ATCC 27853
A. baumannii CDC-0083 = test: microbe, parasite or virus in culture; type: cell-based; settings: Acinetobacter baumannii, CDC0083, read-out: MIC, A. baumannii CDC-0083
P. aeruginosa ATCC 35151 = test: microbe, parasite or virus in culture; type: cell-based; settings: Pseudomonas aeruginosa, ATCC35151, read-out: Minimum inhibitory concentration, P. aeruginosa ATCC 35151
A. baumannii ATCC 19606 = test: microbe, parasite or virus in culture; type: cell-based; settings: Acinetobacter baumannii, ATCC19606, read-out: MIC, A. baumannii ATCC 19606

SMILES: O=C(NCCCN1CCN(C(=O)N[C@@H](C(=O)N[C@H]2Cc3ccc(F)c(C(=O)O)c3OB2O)c2cc(F)c(O)c(O)c2Cl)C(=O)C1=O)c1ccnc(F)c1F [Example 300, (R)-3-((R)-2-(2-chloro-5-fluoro-3,4-dihydroxyphenyl)-2-(4-(3-(2,3-difluoroisonicotinamido)propyl)-2,3-dioxopiperazine-1-carboxamido)acetamido)-7-fluoro-2-hydroxy-3,4-dihydro-2H-benzo[e][1,2]oxaborinine-8-carboxylic acid]
- IC50 [1]: < 10 µM
- MIC (A. baumannii CDC-0045): < 1 µg/mL
- MIC (P. aeruginosa CDC-0095): 2 to 4 µg/mL (≈ 2.56 to 5.12 µM)
- MIC (P. aeruginosa CDC-0110): < 1 µg/mL
- MIC [2]: < 1 µg/mL
- MIC (A. baumannii CDC-0033): 2 to 4 µg/mL (≈ 2.56 to 5.12 µM)
- MIC (P. aeruginosa CDC-0090): < 1 µg/mL
- MIC (P. aeruginosa ATCC 27853): 2 to 4 µg/mL (≈ 2.56 to 5.12 µM)
- MIC (A. baumannii CDC-0083): < 1 µg/mL
- MIC (P. aeruginosa ATCC 35151): < 1 µg/mL
- MIC (A. baumannii ATCC 19606): < 1 µg/mL

SMILES: CS(=O)(=O)N1CCN(C(=O)N[C@@H](C(=O)N[C@H]2Cc3cccc(C(=O)O)c3OB2O)c2ccc(P(=O)(O)O)cc2)C1=O (single isomer, unassigned) [Example 6]
- IC50 [1]: < 10 µM
- MIC (A. baumannii CDC-0045): > 128 µg/mL
- MIC (P. aeruginosa CDC-0095): > 128 µg/mL
- MIC (P. aeruginosa CDC-0110): 32 to 64 µg/mL (≈ 52.4 to 105 µM)
- MIC [2]: 2 to 4 µg/mL (≈ 3.28 to 6.55 µM)
- MIC (A. baumannii CDC-0033): 32 to 64 µg/mL (≈ 52.4 to 105 µM)
- MIC (P. aeruginosa CDC-0090): > 128 µg/mL
- MIC (P. aeruginosa ATCC 27853): 32 to 64 µg/mL (≈ 52.4 to 105 µM)
- MIC (A. baumannii CDC-0083): > 128 µg/mL
- MIC (P. aeruginosa ATCC 35151): 2 to 4 µg/mL (≈ 3.28 to 6.55 µM)
- MIC (A. baumannii ATCC 19606): 8 to 16 µg/mL (≈ 13.1 to 26.2 µM)

SMILES: O=C(NCCCN1CCN(C(=O)N[C@H](C(=O)N[C@H]2Cc3ccc(F)c(C(=O)O)c3OB2O)c2cc(F)c(O)c(O)c2Cl)C1=O)Nc1ccc(O)cc1 [Example 283, (R)-3-((S)-2-(2-chloro-5-fluoro-3,4-dihydroxyphenyl)-2-(3-(3-(3-(4-hydroxyphenyl)ureido)propyl)-2-oxoimidazolidine-1-carboxamido)acetamido)-7-fluoro-2-hydroxy-3,4-dihydro-2H-benzo[e][1,2]oxaborinine-8-carboxylic acid]
- IC50 [1]: 50 to 250 µM
- MIC (A. baumannii CDC-0045): > 128 µg/mL
- MIC (P. aeruginosa CDC-0095): > 128 µg/mL
- MIC (P. aeruginosa CDC-0110): > 128 µg/mL
- MIC [2]: > 128 µg/mL
- MIC (A. baumannii CDC-0033): > 128 µg/mL
- MIC (P. aeruginosa CDC-0090): > 128 µg/mL
- MIC (P. aeruginosa ATCC 27853): > 128 µg/mL
- MIC (A. baumannii CDC-0083): > 128 µg/mL
- MIC (P. aeruginosa ATCC 35151): 2 to 4 µg/mL (≈ 2.68 to 5.36 µM)
- MIC (A. baumannii ATCC 19606): > 128 µg/mL

SMILES: O=C(NCCCN1CCN(C(=O)N[C@@H](C(=O)N[C@H]2Cc3ccc(F)c(C(=O)O)c3OB2O)c2cc(F)c(O)c(O)c2Cl)C(=O)C1=O)c1ccncc1 [Example 294, (R)-3-((R)-2-(2-chloro-5-fluoro-3,4-dihydroxyphenyl)-2-(4-(3-(isonicotinamido)propyl)-2,3-dioxopiperazine-1-carboxamido)acetamido)-7-fluoro-2-hydroxy-3,4-dihydro-2H-benzo[e][1,2]oxaborinine-8-carboxylic acid]
- IC50 [1]: < 10 µM
- MIC (A. baumannii CDC-0045): < 1 µg/mL
- MIC (P. aeruginosa CDC-0095): < 1 µg/mL
- MIC (P. aeruginosa CDC-0110): < 1 µg/mL
- MIC [2]: < 1 µg/mL
- MIC (A. baumannii CDC-0033): 2 to 4 µg/mL (≈ 2.69 to 5.37 µM)
- MIC (P. aeruginosa CDC-0090): < 1 µg/mL
- MIC (P. aeruginosa ATCC 27853): < 1 µg/mL
- MIC (A. baumannii CDC-0083): < 1 µg/mL
- MIC (P. aeruginosa ATCC 35151): < 1 µg/mL
- MIC (A. baumannii ATCC 19606): < 1 µg/mL

SMILES: O=C(NCCCN1CCN(C(=O)N[C@@H](C(=O)N[C@H]2Cc3ccc(F)c(C(=O)O)c3OB2O)c2cc(F)c(O)c(O)c2Cl)C(=O)C1=O)c1cccc(O)c1Cl [Example 303, (R)-3-((R)-2-(4-(3-(2-chloro-3-hydroxybenzamido)propyl)-2,3-dioxopiperazine-1-carboxamido)-2-(2-chloro-5-fluoro-3,4-dihydroxyphenyl)acetamido)-7-fluoro-2-hydroxy-3,4-dihydro-2H-benzo[e][1,2]oxaborinine-8-carboxylic acid]
- IC50 [1]: < 10 µM
- MIC (A. baumannii CDC-0045): < 1 µg/mL
- MIC (P. aeruginosa CDC-0095): < 1 µg/mL
- MIC (P. aeruginosa CDC-0110): < 1 µg/mL
- MIC [2]: < 1 µg/mL
- MIC (A. baumannii CDC-0033): 2 to 4 µg/mL (≈ 2.52 to 5.04 µM)
- MIC (P. aeruginosa CDC-0090): < 1 µg/mL
- MIC (P. aeruginosa ATCC 27853): < 1 µg/mL
- MIC (A. baumannii CDC-0083): < 1 µg/mL
- MIC (P. aeruginosa ATCC 35151): < 1 µg/mL
- MIC (A. baumannii ATCC 19606): < 1 µg/mL
